Measurements published in PMC11347161, “Sequence diversity of apidaecin-like peptides arresting the terminating ribosome” (Nucleic Acids Research, 2024).
Values after ≈ are worked out from the molar mass of the structure shown. Residues, ends and D or L forms follow the SMILES beside them. No end group written: not given here. *: point of attachment. Orn(α-tetramethylguanidino) = CN(C)C(=N[C@@H](CCCN)C(=O)*)N(C)C

System: E. coli, BL21 cells
Format: cell-based
Conditions: for MIC, TSB / MIC, LB / MIC, RPMI/Serum: E. coli BL21, broth microdilution, conducted in triplicate; for MIC, TSB: 33% TSB medium; for MIC, LB: LB medium; for MIC, RPMI/Serum: RPMI/Serum medium (RPMI-1640:MHB:FBS = 100:5:20); for MIC values relative to wt Api: E. coli BL21, peptides from depletion selection
Procedure: The E. coli strain CA244 (lacZ125(Am), e14-, trpA49(Am), relA1, spoT1) was obtained from Escherichia coli Genetic Stock Center. The E. coli BL21(DE3) electrocompetent cells were from Sigma. The following media and components were implemented for bacteria growth: lysogeny broth (LB), minimal M9 medium, Tryptic Soy Broth (TSB), Roswell Park Memorial Institute medium 1640 (RPMI-1640), Mueller Hinton Broth (MHB), Fetal Bovine Serum (FBS). For various experiments E. coli cells were grown either in LB, in 33% TSB ([21]), in M9 medium supplemented with 1% Glycerol, 1 mM MgSO4, 0.1 mM CaCl2 and 10 μg/ml thiamine, or in RPMI/Serum (RPMI-1640:MHB:FBS = 100:5:20) ([23]).
The minimal inhibitory concentration (MIC) test was performed using the broth microdilution method, adapted from the previously described procedure ([28]). The MIC tests were conducted in triplicate either in LB, 33% TSB or RPMI/Serum media.
In order to quantitatively assess the antimicrobial activity of the synthesized peptides identified by both, the negative and positive selection strategies, we determined their minimal inhibitory concentrations (MICs) for the E. coli BL21 cells in three different media: LB, as a standard laboratory medium, 33% TSB, as a medium in which PrAMPs show increased antibacterial properties ([21]), and in the more therapeutically relevant RPMI/serum media ([23]) (Table 1). […] It appears, therefore, that the positive selection strategy is more prone to identifying biologically active peptides in comparison with the negative selection approaches. Furthermore, it became apparent that some multiple substitutions can even improve the antibacterial properties of the Api-like peptides.

Compound	MIC, TSB	MIC, LB	MIC, RPMI/Serum	MIC values relative to wt Api
CC[C@H](C)[C@H](NC(=O)CNC(=O)[C@@H](NC(=O)[C@H](CCC(=O)O)NC(=O)[C@H](CCC(N)=O)NC(=O)[C@H](CC(N)=O)NC(=O)[C@H](CC(N)=O)NC(=O)[C@H](CCCN)N=C(N(C)C)N(C)C)C(C)C)C(=O)N[C@@H](CCSC)C(=O)N[C@@H](CCC(N)=O)C(=O)N1CCC[C@H]1C(=O)N[C@@H](CCCNC(=N)N)C(=O)N1CCC[C@H]1C(=O)N1CCC[C@H]1C(=O)N[C@@H](Cc1c[nH]cn1)C(=O)N1CCC[C@H]1C(=O)N[C@@H](CCCNC(=N)N)C(=O)N[C@@H](CC(C)C)C(=O)O [Peptide Q4E5G7M9] ({Orn(α-tetramethylguanidino)}-NNQEVGIMQPRPPHPRL-OH; C-terminus assumed)	>64 µM	>64 µM	>64 µM	–
CC(C)C[C@H](NC(=O)[C@H](CCCNC(=N)N)NC(=O)[C@@H]1CCCN1C(=O)[C@H](Cc1c[nH]c2ccccc12)NC(=O)[C@@H]1CCCN1C(=O)[C@@H]1CCCN1C(=O)[C@H](CCCNC(=N)N)NC(=O)[C@@H]1CCCN1C(=O)[C@H](CCC(N)=O)NC(=O)[C@@H]1CCCN1C(=O)[C@H](CC(=O)O)NC(=O)[C@H](CC(N)=O)NC(=O)[C@@H](NC(=O)[C@H](CCCNC(=N)N)NC(=O)[C@H](CCCNC(=N)N)NC(=O)[C@H](CC(N)=O)NC(=O)[C@H](CC(N)=O)NC(=O)[C@H](CCCN)N=C(N(C)C)N(C)C)[C@@H](C)O)C(=O)O [Peptide R5T6N7D8W15] ({Orn(α-tetramethylguanidino)}-NNRRTNDPQPRPPWPRL-OH; C-terminus assumed)	>64 µM	>64 µM	>64 µM	–
CC[C@H](C)[C@H](NC(=O)[C@H](Cc1ccc(O)cc1)NC(=O)[C@H](CCCNC(=N)N)NC(=O)[C@@H]1CCCN1C(=O)[C@H](CCCNC(=N)N)NC(=O)[C@H](CC(N)=O)NC(=O)[C@H](CC(N)=O)NC(=O)[C@H](CCCN)N=C(N(C)C)N(C)C)C(=O)N1CCC[C@H]1C(=O)N[C@@H](C)C(=O)N1CCC[C@H]1C(=O)N[C@@H](CCCNC(=N)N)C(=O)N1CCC[C@H]1C(=O)N1CCC[C@H]1C(=O)N[C@@H](Cc1c[nH]cn1)C(=O)N1CCC[C@H]1C(=O)N[C@@H](CCCNC(=N)N)C(=O)N[C@@H](CC(C)C)C(=O)O [Peptide R6A10] ({Orn(α-tetramethylguanidino)}-NNRPRYIPAPRPPHPRL-OH; C-terminus assumed)	0.5 µM (≈ 1.13 µg/mL)	4 µM (≈ 9.05 µg/mL)	0.0625 µM (≈ 0.141 µg/mL)	comparable to those of wt Api
CC(C)C[C@H](NC(=O)[C@@H]1CCCN1C(=O)[C@H](CCC(N)=O)NC(=O)[C@@H]1CCCN1C(=O)[C@H](CC(C)C)NC(=O)[C@H](Cc1ccc(O)cc1)NC(=O)[C@@H](NC(=O)[C@@H]1CCCN1C(=O)[C@H](CCCNC(=N)N)NC(=O)[C@H](CC(N)=O)NC(=O)[C@H](CC(N)=O)NC(=O)[C@H](CCCN)N=C(N(C)C)N(C)C)C(C)C)C(=O)NCC(=O)N1CCC[C@H]1C(=O)NCC(=O)N1CCC[C@H]1C(=O)N[C@@H](CCCNC(=N)N)C(=O)N[C@@H](C)C(=O)O [L8L12G13G15A18] ({Orn(α-tetramethylguanidino)}-NNRPVYLPQPLGPGPRA-OH; C-terminus assumed)	>64 µM	>64 µM	>64 µM	–
CC[C@H](C)[C@H](NC(=O)[C@H](Cc1ccc(O)cc1)NC(=O)[C@@H](NC(=O)[C@H](Cc1c[nH]c2ccccc12)NC(=O)[C@H](CCCNC(=N)N)NC(=O)[C@H](CC(N)=O)NC(=O)[C@H](CC(N)=O)NC(=O)[C@H](CCCN)N=C(N(C)C)N(C)C)C(C)C)C(=O)N[C@@H](CC(N)=O)C(=O)N[C@H](C(=O)N1CCC[C@H]1C(=O)N[C@@H](CCCNC(=N)N)C(=O)N[C@@H](CO)C(=O)N1CCC[C@H]1C(=O)N[C@@H](Cc1c[nH]cn1)C(=O)N1CCC[C@H]1C(=O)N[C@@H](CCCNC(=N)N)C(=O)N[C@@H](CC(C)C)C(=O)O)[C@@H](C)O [Peptide W5N9T10S13] ({Orn(α-tetramethylguanidino)}-NNRWVYINTPRSPHPRL-OH; C-terminus assumed)	>64 µM	>64 µM	>64 µM	–
CC(C)C[C@H](NC(=O)[C@H](CCCNC(=N)N)NC(=O)[C@@H]1CCCN1C(=O)[C@H](Cc1c[nH]cn1)NC(=O)[C@H](Cc1ccc(O)cc1)NC(=O)[C@@H]1CCCN1C(=O)[C@H](CCCNC(=N)N)NC(=O)[C@@H]1CCCN1C(=O)[C@@H](NC(=O)[C@H](CS)NC(=O)[C@H](Cc1c[nH]c2ccccc12)NC(=O)[C@H](CCC(N)=O)NC(=O)[C@@H](NC(=O)[C@H](CCCCN)NC(=O)[C@H](CCCNC(=N)N)NC(=O)[C@H](CC(N)=O)NC(=O)[C@H](CC(N)=O)NC(=O)[C@H](CCCN)N=C(N(C)C)N(C)C)C(C)C)C(C)C)C(=O)O [K5Q7W8C9V10Y14] ({Orn(α-tetramethylguanidino)}-NNRKVQWCVPRPYHPRL-OH; C-terminus assumed)	>64 µM	>64 µM	>64 µM	–
CC[C@H](C)[C@H](NC(=O)[C@H](Cc1ccc(O)cc1)NC(=O)[C@H](CCCCN)NC(=O)[C@@H]1CCCN1C(=O)[C@H](CCCNC(=N)N)NC(=O)[C@H](CC(N)=O)NC(=O)[C@H](CC(N)=O)NC(=O)[C@H](CCCN)N=C(N(C)C)N(C)C)C(=O)N1CCC[C@H]1C(=O)N[C@@H](CCSC)C(=O)N1CCC[C@H]1C(=O)N[C@@H](CCCNC(=N)N)C(=O)N1CCC[C@H]1C(=O)N1CCC[C@H]1C(=O)N[C@@H](Cc1c[nH]cn1)C(=O)N1CCC[C@H]1C(=O)N[C@@H](CCCNC(=N)N)C(=O)N[C@@H](CC(C)C)C(=O)O [Peptide K6M10] ({Orn(α-tetramethylguanidino)}-NNRPKYIPMPRPPHPRL-OH; C-terminus assumed)	0.5 µM (≈ 1.15 µg/mL)	8 µM (≈ 18.4 µg/mL)	1 µM (≈ 2.3 µg/mL)	comparable to those of wt Api
TNARPVNAPQPRPPHPRL [Peptide T1A3N7A8]	8 µM	64 µM	16 µM	–
GNRRPVYIPVPRPPYPRL [Peptide R3V10Y15]	2 µM	8 µM	2 µM	–
GKNRPVYIYQPKPPIPRL [Peptide K2Y9K12I15]	>64 µM	>64 µM	>64 µM	–
GNNRPGYIPPPRPPHPRL [Peptide G6P10]	0.5 µM	8 µM	4 µM	–
GNNRPVYIPQPRPPHPRL [Api Ib, Apidaecin 1b, reference compound]	0.5 µM	16 µM	4 µM	–
GNRRPMYIPRPRPPHPRE [Peptide R3M6R10E18]	8 µM	>64 µM	16 µM	–
GYNRPAYIPRPRPPHPRR [Peptide Y2A6R10R18]	1 µM	4 µM	0.5 µM	–
GNNRPGYQPKPRPPHPRL [Peptide G6Q8K10]	0.5 µM	32 µM	16 µM	–
GNNRPVYIPKPRPPYPRK [Peptide K10Y15K18]	2 µM	8 µM	2 µM	–
